Assay results as given in patent US20240368214A1, “POSITIVE NMDA-MODULATING COMPOUNDS AND METHODS OF USE THEREOF” (SAGE THERAPEUTICS, INC., priority 2021, published 2024).
Read-outs that look alike come from different tables or passages of the source.

Biological target: T1, recombinant human GluN1/GluN2A receptor (Homo sapiens, UniProt Q05586+Q12879)
T1 construct: expressed in transfected cells; host or cells: HEK293, tetracycline-inducible expression
Experiment: Whole-cell patch clamp of mammalian cells (Syncropatch 384i), NMDA modulation
Assay type: cell-based
Details: HEK293 cells, human GluN1/GluN2A, glutamate 1 μM / glycine 100 μM, -80 mV, peak amplitude increase; for EC50: read-out: EC50
Method in brief: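 Modulation read as fold rise in peak current, (Icomp/Icontrol)−1, from 8 concentrations with ≥2 wells each, four-parameter fit. Compound pre-incubated 120 s then co-applied with 1 μM glutamate plus 100 μM glycine; tetracycline-inducible HEK293 GluN1/GluN2A cells clamped at −80 mV.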

T1 sequence (Q12879 23-1464, other chains not shown): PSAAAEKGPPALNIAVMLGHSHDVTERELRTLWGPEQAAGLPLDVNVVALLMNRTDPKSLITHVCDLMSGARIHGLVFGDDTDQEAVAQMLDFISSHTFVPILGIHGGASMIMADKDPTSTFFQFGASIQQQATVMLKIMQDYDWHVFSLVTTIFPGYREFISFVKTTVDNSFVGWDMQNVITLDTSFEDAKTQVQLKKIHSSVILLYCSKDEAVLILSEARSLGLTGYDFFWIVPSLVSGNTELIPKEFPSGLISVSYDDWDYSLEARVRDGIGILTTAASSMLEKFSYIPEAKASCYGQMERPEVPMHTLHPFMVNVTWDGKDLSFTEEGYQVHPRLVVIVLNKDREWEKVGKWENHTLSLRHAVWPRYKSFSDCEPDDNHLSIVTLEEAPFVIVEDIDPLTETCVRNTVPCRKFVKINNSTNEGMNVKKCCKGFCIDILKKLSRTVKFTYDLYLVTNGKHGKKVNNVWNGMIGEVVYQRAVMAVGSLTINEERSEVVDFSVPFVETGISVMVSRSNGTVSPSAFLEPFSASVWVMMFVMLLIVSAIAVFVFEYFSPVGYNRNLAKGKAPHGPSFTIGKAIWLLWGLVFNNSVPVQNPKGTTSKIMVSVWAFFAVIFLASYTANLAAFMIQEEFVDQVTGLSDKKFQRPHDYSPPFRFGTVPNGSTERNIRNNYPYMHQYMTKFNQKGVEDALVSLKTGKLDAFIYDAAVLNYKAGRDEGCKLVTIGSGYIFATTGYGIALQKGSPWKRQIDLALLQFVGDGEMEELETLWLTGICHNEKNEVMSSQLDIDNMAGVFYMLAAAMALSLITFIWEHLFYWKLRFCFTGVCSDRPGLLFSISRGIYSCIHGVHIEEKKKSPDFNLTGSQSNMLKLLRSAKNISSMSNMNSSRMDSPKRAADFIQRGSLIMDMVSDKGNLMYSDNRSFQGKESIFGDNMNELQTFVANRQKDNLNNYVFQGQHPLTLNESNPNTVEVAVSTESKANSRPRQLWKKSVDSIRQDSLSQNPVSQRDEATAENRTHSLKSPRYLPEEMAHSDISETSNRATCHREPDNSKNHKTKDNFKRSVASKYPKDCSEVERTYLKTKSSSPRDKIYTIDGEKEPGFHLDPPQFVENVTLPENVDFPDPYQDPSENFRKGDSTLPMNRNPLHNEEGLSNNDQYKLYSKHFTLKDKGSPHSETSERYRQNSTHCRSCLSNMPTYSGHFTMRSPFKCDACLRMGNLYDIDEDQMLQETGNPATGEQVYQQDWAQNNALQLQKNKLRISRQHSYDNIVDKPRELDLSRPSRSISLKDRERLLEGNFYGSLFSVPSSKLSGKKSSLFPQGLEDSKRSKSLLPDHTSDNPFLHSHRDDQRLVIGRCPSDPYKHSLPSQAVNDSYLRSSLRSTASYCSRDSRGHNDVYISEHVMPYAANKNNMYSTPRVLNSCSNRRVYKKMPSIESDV

| Compound | Emax (Table E-2) [%] | EC50 (Table E-2) [nM] | further results |
| --- | --- | --- | --- |
| CC[C@]1(O)CCC[C@@]2(C)C(=CC[C@H]3[C@@H]4CC[C@H]([C@H](C)CC[C@](C)(O)C(F)(F)F)[C@@]4(C)CC[C@@H]32)C1 [Compound D-17, (1R,3aS,3bS,7S,10aR,10bS,12aR)-7-ethyl-10a,12a-dimethyl-1-((2R,5S)-6,6,6-trifluoro-5-hydroxy-5-methylhexan-2-yl)-1,2,3,3a,3b,4,6,7,8,9,10,10a,10b,11,12,12a-hexadecahydrocyclohepta[a]cyclopenta[f]naphthalen-7-ol] | – | – | Emax (Table D-2): 100 to 200%; EC50 (Table D-2): 100 to 500 nM |
| CC[C@]1(O)CC[C@]2(C)C3=CC[C@]4(C)[C@@H]([C@H](C)CCCC(C)(C)O)CC[C@H]4[C@@H]3CC[C@H]2C1 [Compound E-1, (3S,5S,8S,10S,13R,14S,17R)-3-ethyl-17-((R)-6-hydroxy-6-methylheptan-2-yl)-10,13-dimethyl-2,3,4,5,6,7,8,10,12,13,14,15,16,17-tetradecahydro-1H-cyclopenta[a]phenanthren-3-ol] | < 100 | 1 to 100 | – |
| CC[C@]1(O)CC[C@]2(C)C3=CC[C@]4(C)[C@@H]([C@H](C)CC[C@@](C)(O)C(F)(F)F)CC[C@H]4[C@@H]3CC[C@H]2C1 [Compound E-2, (3S,5S,8S,10S,13R,14S,17R)-3-ethyl-10,13-dimethyl-17-((2R,5R)-6,6,6-trifluoro-5-hydroxy-5-methylhexan-2-yl)-2,3,4,5,6,7,8,10,12,13,14,15,16,17-tetradecahydro-1H-cyclopenta[a]phenanthren-3-ol] | > 200 | 100 to 500 | – |
| CC[C@]1(O)CC[C@]2(C)C3=CC[C@]4(C)[C@@H]([C@H](C)CC[C@](C)(O)C(F)(F)F)CC[C@H]4[C@@H]3CC[C@H]2C1 [Compound E-3, (3S,5S,8S,10S,13R,14S,17R)-3-ethyl-10,13-dimethyl-17-((2R,5S)-6,6,6-trifluoro-5-hydroxy-5-methylhexan-2-yl)-2,3,4,5,6,7,8,10,12,13,14,15,16,17-tetradecahydro-1H-cyclopenta[a]phenanthren-3-ol] | > 200 | 1 to 100 | – |
| CC[C@]1(O)CC[C@]2(C)C3=CC[C@]4(C)[C@@H]([C@H](C)CC[C@@H](O)C(C)C)CC[C@H]4[C@@H]3CC[C@H]2C1 [Compound E-4, (3S,5S,8S,10S,13R,14S,17R)-3-ethyl-17-((2R,5R)-5-hydroxy-6-methylheptan-2-yl)-10,13-dimethyl-2,3,4,5,6,7,8,10,12,13,14,15,16,17-tetradecahydro-1H-cyclopenta[a]phenanthren-3-ol] | > 200 | 1 to 100 | – |
| CC[C@]1(O)CC[C@]2(C)C3=CC[C@]4(C)[C@@H]([C@H](C)CCC(C)(C)O)CC[C@H]4[C@@H]3CC[C@H]2C1 [Compound E-5, (3S,5S,8S,10S,13R,14S,17R)-3-ethyl-17-((R)-5-hydroxy-5-methylhexan-2-yl)-10,13-dimethyl-2,3,4,5,6,7,8,10,12,13,14,15,16,17-tetradecahydro-1H-cyclopenta[a]phenanthren-3-ol] | 100 to 200 | 1 to 100 | – |
| CC[C@]1(O)CC[C@]2(C)C3=CC[C@]4(C)[C@@H]([C@H](C)CCC5(O)CCCC5)CC[C@H]4[C@@H]3CC[C@H]2C1 [Compound E-6, (3S,5S,8S,10S,13R,14S,17R)-3-ethyl-17-((R)-4-(1-hydroxycyclopentyl)butan-2-yl)-10,13-dimethyl-2,3,4,5,6,7,8,10,12,13,14,15,16,17-tetradecahydro-1H-cyclopenta[a]phenanthren-3-ol] | > 200 | 1 to 100 | – |
| CC[C@]1(O)CC[C@]2(C)C3=CC[C@]4(C)[C@@H]([C@H](C)CCC5(O)CC5)CC[C@H]4[C@@H]3CC[C@H]2C1 [Compound E-7, (3S,5S,8S,10S,13R,14S,17R)-3-ethyl-17-((R)-4-(1-hydroxycyclopropyl)butan-2-yl)-10,13-dimethyl-2,3,4,5,6,7,8,10,12,13,14,15,16,17-tetradecahydro-1H-cyclopenta[a]phenanthren-3-ol] | > 200 | 100 to 500 | – |
| CC[C@]1(O)CC[C@]2(C)C3=CC[C@]4(C)[C@@H]([C@H](C)CC[C@@]5(O)CCOC5)CC[C@H]4[C@@H]3CC[C@H]2C1 [Compound E-8, (R)-3-((R)-3-((3S,5S,8S,10S,13R,14S,17R)-3-ethyl-3-hydroxy-10,13-dimethyl-2,3,4,5,6,7,8,10,12,13,14,15,16,17-tetradecahydro-1H-cyclopenta[a]phenanthren-17-yl)butyl)tetrahydrofuran-3-ol] | > 200 | 1 to 100 | – |
| CC[C@]1(O)CC[C@]2(C)C3=CC[C@]4(C)[C@@H]([C@H](C)CC[C@]5(O)CCOC5)CC[C@H]4[C@@H]3CC[C@H]2C1 [Compound E-9, (S)-3-((R)-3-((3S,5S,8S,10S,13R,14S,17R)-3-ethyl-3-hydroxy-10,13-dimethyl-2,3,4,5,6,7,8,10,12,13,14,15,16,17-tetradecahydro-1H-cyclopenta[a]phenanthren-17-yl)butyl)tetrahydrofuran-3-ol] | > 200 | 1 to 100 | – |
| C[C@H](CCCO)[C@H]1CC[C@H]2[C@@H]3CC[C@H]4C[C@@](C)(O)CC[C@]4(C)C3=CC[C@]12C [Compound E-10, (3S,5S,8S,10S,13R,14S,17R)-17-((R)-5-hydroxypentan-2-yl)-3,10,13-trimethyl-2,3,4,5,6,7,8,10,12,13,14,15,16,17-tetradecahydro-1H-cyclopenta[a]phenanthren-3-ol] | < 100 | 1 to 100 | – |
| CC(C)[C@H](O)CC[C@@H](C)[C@H]1CC[C@H]2[C@@H]3CC[C@H]4C[C@@](C)(O)CC[C@]4(C)C3=CC[C@]12C [Compound E-11, (3S,5S,8S,10S,13R,14S,17R)-17-((2R,5R)-5-hydroxy-6-methylheptan-2-yl)-3,10,13-trimethyl-2,3,4,5,6,7,8,10,12,13,14,15,16,17-tetradecahydro-1H-cyclopenta[a]phenanthren-3-ol] | 100 to 200 | 1 to 100 | – |
| CC(C)[C@@H](O)CC[C@@H](C)[C@H]1CC[C@H]2[C@@H]3CC[C@H]4C[C@@](C)(O)CC[C@]4(C)C3=CC[C@]12C [Compound E-12, (3S,5S,8S,10S,13R,14S,17R)-17-((2R,5S)-5-hydroxy-6-methylheptan-2-yl)-3,10,13-trimethyl-2,3,4,5,6,7,8,10,12,13,14,15,16,17-tetradecahydro-1H-cyclopenta[a]phenanthren-3-ol] | 100 to 200 | 1 to 100 | – |
| C[C@H](CC[C@](C)(O)C(F)(F)F)[C@H]1CC[C@H]2[C@@H]3CC[C@H]4C[C@@](C)(O)CC[C@]4(C)C3=CC[C@]12C [Compound E-13, (3S,5S,8S,10S,13R,14S,17R)-3,10,13-trimethyl-17-((2R,5S)-6,6,6-trifluoro-5-hydroxy-5-methylhexan-2-yl)-2,3,4,5,6,7,8,10,12,13,14,15,16,17-tetradecahydro-1H-cyclopenta[a]phenanthren-3-ol] | – | 1 to 100 | – |
| C[C@H](CC[C@@](C)(O)C(F)(F)F)[C@H]1CC[C@H]2[C@@H]3CC[C@H]4C[C@@](C)(O)CC[C@]4(C)C3=CC[C@]12C [Compound E-14, (3S,5S,8S,10S,13R,14S,17R)-3,10,13-trimethyl-17-((2R,5R)-6,6,6-trifluoro-5-hydroxy-5-methylhexan-2-yl)-2,3,4,5,6,7,8,10,12,13,14,15,16,17-tetradecahydro-1H-cyclopenta[a]phenanthren-3-ol] | – | 100 to 500 | – |
| C[C@H](CCC1(O)CC1)[C@H]1CC[C@H]2[C@@H]3CC[C@H]4C[C@@](C)(O)CC[C@]4(C)C3=CC[C@]12C [Compound E-15, (3S,5S,8S,10S,13R,14S,17R)-17-((R)-4-(1-hydroxycyclopropyl)butan-2-yl)-3,10,13-trimethyl-2,3,4,5,6,7,8,10,12,13,14,15,16,17-tetradecahydro-1H-cyclopenta[a]phenanthren-3-ol] | – | 1 to 100 | – |
| CCC(O)(CC)CC[C@@H](C)[C@H]1CC[C@H]2[C@@H]3CC[C@H]4C[C@@](C)(O)CC[C@]4(C)C3=CC[C@]12C [Compound E-16, (3S,5S,8S,10S,13R,14S,17R)-17-((R)-5-ethyl-5-hydroxyheptan-2-yl)-3,10,13-trimethyl-2,3,4,5,6,7,8,10,12,13,14,15,16,17-tetradecahydro-1H-cyclopenta[a]phenanthren-3-ol] | – | 500 to 1000 | – |
| CC[C@]12CC[C@H]3[C@@H](CC=C4C[C@@](C)(O)CC[C@@]43C)[C@@H]1CC[C@@H]2[C@H](C)CC[C@H](O)C(C)C [Compound F-3, (3S,8S,9S,10R,13R,14S,17R)-13-ethyl-17-((2R,5S)-5-hydroxy-6-methylheptan-2-yl)-3,10-dimethyl-2,3,4,7,8,9,10,11,12,13,14,15,16,17-tetradecahydro-1H-cyclopenta[a]phenanthren-3-ol] | – | – | EC50 (Table F-2): 100 to 500 nM |
| CC[C@]12CC[C@H]3[C@@H](CC=C4C[C@@](C)(O)CC[C@@]43C)[C@@H]1CC[C@@H]2[C@H](C)CC[C@@H](O)C(C)C [Compound F-4, (3S,8S,9S,10R,13R,14S,17R)-13-ethyl-17-((2R,5R)-5-hydroxy-6-methylheptan-2-yl)-3,10-dimethyl-2,3,4,7,8,9,10,11,12,13,14,15,16,17-tetradecahydro-1H-cyclopenta[a]phenanthren-3-ol] | – | – | EC50 (Table F-2): 100 to 500 nM |
